Laboratory results from patent US10246456B2, “IRAK4 inhibiting agents” (BIOGEN MA INC., priority 2014, dated 2019).

Tests used:
[1] = molecular target: IRAK4 (Homo sapiens (Human), UniProt Q9NWZ3); test: IRAK-4 AlphaScreen biochemical kinase assay; conditions: 1 nM IRAK4, 1 mM ATP, 3.5 h at RT
Procedure, shortened: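 AlphaScreen read-out: streptavidin beads bind the biotinylated peptide and protein A beads bind the anti-phosphothreonine antibody, so energy transfer reports phosphorylation of the peptide. The kinase is human IRAK-4.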

[2] = system: IL-6 in A549 cells; test: Cell-based IL-6 ELISA assay in IL-1beta stimulated A549 cells; conditions: 2 ng/ml human IL-1beta overnight
Method: The cell-based assays is based on IL-6 ELISA quantification. Briefly, A549 cells are cultured in DMEM with 10% FBS medium. When cells reach 80% confluence they are trypsin treated and seeded 180 ul/well in 96-well plate at 2.5×10^4 cells/well. Then, 20 ul of compound serial dilutions (starting at 10 uM, 10 points) are added to the cell plate; incubate for 30 min at 37 C and stimulated with 2 ng/ml human IL-1beta 37 C, 5% CO2 overnight. The next day 100 ul of cell supernatant per well are analyzed on a Human IL-6 Quantikine ELISA kit from R&D Systems.

Sequence of IRAK4 (Q9NWZ3 whole entry, species assumed): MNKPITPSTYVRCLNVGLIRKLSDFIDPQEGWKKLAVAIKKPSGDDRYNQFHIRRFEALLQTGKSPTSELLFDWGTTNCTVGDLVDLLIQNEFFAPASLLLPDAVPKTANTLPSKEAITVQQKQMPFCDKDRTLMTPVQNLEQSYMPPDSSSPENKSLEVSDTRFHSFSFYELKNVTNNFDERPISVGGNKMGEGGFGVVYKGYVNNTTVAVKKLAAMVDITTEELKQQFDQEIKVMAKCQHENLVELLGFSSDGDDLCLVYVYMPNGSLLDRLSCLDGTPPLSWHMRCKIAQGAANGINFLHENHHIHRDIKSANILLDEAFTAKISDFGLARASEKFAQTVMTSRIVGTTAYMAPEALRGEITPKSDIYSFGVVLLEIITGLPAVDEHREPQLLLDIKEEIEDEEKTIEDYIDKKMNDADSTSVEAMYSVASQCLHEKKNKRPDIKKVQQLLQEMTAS

| IC50 [1] [nM] | EC50 [2] [nM] | Structure (SMILES) |
| --- | --- | --- |
| < 100 | ≤ 1000 | Cc1nnc(-c2cc(-c3cccc([C@H](C)N)n3)cc3c2cnn3-c2cccc(CO)n2)s1 [Example 362, (S)-(6-(6-(6-(1-aminoethyl)pyridin-2-yl)-4-(5-methyl-1,3,4-thiadiazol-2-yl)-1H-indazol-1-yl)pyridin-2-yl)methanol] |
| < 100 | ≤ 1000 | C[C@H](N)c1cccc(-c2cc(-c3cn(C)cn3)c3cnn(-c4cccc(CO)n4)c3c2)n1 [Example 363, (S)-(6-(6-(6-(1-aminoethyl)pyridin-2-yl)-4-(1-methyl-1H-imidazol-4-yl)-1H-indazol-1-yl)pyridin-2-yl)methanol] |
| < 100 | ≤ 1000 | C[C@H](N)c1cccc(-c2cc(-c3ncccn3)c3cnn(-c4cccc(CO)n4)c3c2)n1 [Example 364, (S)-(6-(6-(6-(1-aminoethyl)pyridin-2-yl)-4-(pyrimidin-2-yl)-1H-indazol-1-yl)pyridin-2-yl)methanol] |
| < 100 | ≤ 1000 | Cc1cc(-c2cc(-c3cccc([C@H](C)N)n3)cc3c2cnn3-c2cccc(CO)n2)nn1C [Example 365, (S)-(6-(6-(6-(1-aminoethyl)pyridin-2-yl)-4-(1,5-dimethyl-1H-pyrazol-3-yl)-1H-indazol-1-yl)pyridin-2-yl)methanol] |
| < 100 | ≤ 1000 | Cc1cc(-c2cc(-c3cccc([C@H](C)N)n3)cc3c2cnn3-c2cccc(CO)n2)n[nH]1 [Example 366, (S)-(6-(6-(6-(1-aminoethyl)pyridin-2-yl)-4-(5-methyl-1H-pyrazol-3-yl)-1H-indazol-1-yl)pyridin-2-yl)methanol] |
| < 100 | ≤ 1000 | C[C@H](N)c1cccc(-c2cc(-c3cnn(C)c3)c3cnn(-c4cccc(CO)n4)c3c2)n1 [Example 367, (S)-(6-(6-(6-(1-aminoethyl)pyridin-2-yl)-4-(1-methyl-1H-pyrazol-4-yl)-1H-indazol-1-yl)pyridin-2-yl)methanol] |
| < 100 | ≤ 1000 | Cc1nc(-c2cc(-c3cccc([C@H](C)N)n3)cc3c2cnn3-c2cccc(CO)n2)cs1 [Example 368, (S)-(6-(6-(6-(1-aminoethyl)pyridin-2-yl)-4-(2-methylthiazol-4-yl)-1H-indazol-1-yl)pyridin-2-yl)methanol] |
| < 100 | ≤ 1000 | C[C@H](N)c1cccc(-c2cc(-c3nc(C#N)cs3)c3cnn(-c4cccc(CO)n4)c3c2)n1 [Example 369, (S)-2-(6-(6-(1-aminoethyl)pyridin-2-yl)-1-(6-(hydroxymethyl)pyridin-2-yl)-1H-indazol-4-yl)thiazol-4-carbonitrile] |
| < 100 | ≤ 1000 | C[C@H](N)c1cccc(-c2cc(-c3ccsn3)c3cnn(-c4cccc(CO)n4)c3c2)n1 [Example 370, (S)-(6-(6-(6-(1-aminoethyl)pyridi9n-2-yl)-4-(isothiazol-3-yl)-1H-indazol-1-yl)pyridin-2-yl)methanol] |
| < 100 | ≤ 1000 | C[C@H](N)c1cccc(-c2cc(-c3ccccc3)c3cnn(-c4cccc(CO)n4)c3c2)n1 [Example 371, (S)-(6-(6-(6-(1-aminoethyl)pyridin-2-yl)-4-phenyl-1H-indazol-1-yl)pyridin-2-yl)methanol] |
| < 100 | ≤ 1000 | Cc1cnc(-c2cc(-c3cccc([C@H](C)N)n3)cc3c2cnn3-c2cccc(CO)n2)s1 [Example 372, (S)-(6-(6-(6-(1-aminoethyl)pyridin-2-yl)-4-(5-methylthiazol-2-yl)-1H-indazol-1-yl)pyridin-2-yl)methanol] |
| < 100 | ≤ 1000 | C[C@H](N)c1cccc(-c2cc(-c3ccccn3)c3cnn(-c4cccc(CO)n4)c3c2)n1 [Example 373, (S)-(6-(6-(6-(1-aminoethyl)pyridin-2-yl)-4-(pyridin-2-yl)-1H-indazol-1-yl)pyridin-2-yl)methanol] |
| < 100 | ≤ 1000 | C[C@H](N)c1cccc(-c2cc(-c3nc(C(F)(F)F)co3)c3cnn(-c4cccc(CO)n4)c3c2)n1 [Example 374, (S)-(6-(6-(6-(1-aminoethyl)pyridin-2-yl)-4-(4-(trifluoromethyl)oxazol-2-yl)-1H-indazol-1-yl)pyridin-2-yl)methanol] |
| < 100 | ≤ 1000 | Cc1csc(-c2cc(-c3cccc([C@H](C)N)n3)cc3c2cnn3-c2cccc(CO)n2)n1 [Example 375, (S)-(6-(6-(6-(1-aminoethyl)pyridin-2-yl)-4-(4-methylthiazol-2-yl)-1H-indazol-1-yl)pyridin-2-yl)methanol] |
| < 100 | ≤ 1000 | C[C@H](N)c1cccc(-c2cc(-c3cnn(C(F)(F)F)c3)c3cnn(-c4cccc(CO)n4)c3c2)n1 [Example 376, (S)-(6-(6-(6-(1-aminoethyl)pyridin-2-yl)-4-(1-(trifluoromethyl)-1H-pyrazol-4-yl)-1H-indazol-1-yl)pyridin-2-yl)methanol] |
| < 100 | ≤ 1000 | Cc1nc(-c2cc(-c3cccc([C@H](C)N)n3)cc3c2cnn3-c2cccc(CO)n2)sc1C [Example 377, (S)-(6-(6-(6-(1-aminoethyl)pyridin-2-yl)-4-(4,5-dimethylthiazol-2-yl)-1H-indazol-1-yl)pyridin-2-yl)methanol] |
| < 100 | 1000 to 10000 | C[C@H](N)c1cccc(-c2cc(-c3nc(C(F)(F)F)cs3)c3cnn(-c4cccc(CO)n4)c3c2)n1 [Example 378, (S)-(6-(6-(6-(1-aminoethyl)pyridin-2-yl)-4-(4-(trifluoromethyl)thiazol-2-yl)-1H-indazol-1-yl)pyridin-2-yl)methanol] |
| < 100 | 1000 to 10000 | C[C@H](N)c1cccc(-c2cc(-c3nccs3)c3cnn(-c4cccc(CO)n4)c3c2)n1 [Example 379, (S)-(6-(6-(6-(1-aminoethyl)pyridin-2-yl)-4-(thiazol-2-yl)-1H-indazol-1-yl)pyridin-2-yl)methanol] |
| < 100 | 1000 to 10000 | C[C@H](N)c1cccc(-c2cc(-c3ncc(C(F)(F)F)s3)c3cnn(-c4cccc(CO)n4)c3c2)n1 [Example 380, (S)-(6-(6-(6-(1-aminoethyl)pyridin-2-yl)-4-(5-(trifluoromethyl)thiazol-2-yl)-1H-indazol-1-yl)pyridin-2-yl)methanol] |
| < 100 | 1000 to 10000 | C[C@H](N)c1cccc(-c2cc(-c3cc[nH]n3)c3cnn(-c4cccc(CO)n4)c3c2)n1 [Example 381, (S)-(6-(6-(6-(1-aminoethyl)pyridin-2-yl)-4-(1H-pyrazol-3-yl)-1H-indazol-1-yl)pyridin-2-yl)methanol] |
| 100 to 1000 | ≤ 1000 | C[C@H](N)c1cccc(-c2ccc3cnn(-c4cncc(CO)n4)c3c2)n1 [Example 397, (S)-(6-(6-(6-(1-aminoethyl)pyridin-2-yl)-1H-indazol-1-yl)pyrazin-2-yl)methanol] |
| < 100 | ≤ 1000 | CC[C@H](N)c1cccc(-c2ccc3cnn(-c4cncc(CO)n4)c3c2)n1 [Example 398, (S)-(6-(6-(6-(1-aminopropyl)pyridin-2-yl)-1H-indazol-1-yl)pyrazin-2-yl)methanol] |
| < 100 | ≤ 1000 | CCC[C@H](N)c1cccc(-c2ccc3cnn(-c4cncc(CO)n4)c3c2)n1 [Example 399, (S)-(6-(6-(6-(1-aminobutyl)pyridin-2-yl)-1H-indazol-1-yl)pyrazin-2-yl)methanol] |
